Reference: patent US8263754B2, “Amphiphiles for protein solubilization and stabilization” (Wisconsin Alumni Research Foundation, priority 2008, dated 2012)
Values belong to the compound of their own block, whether it stands above or below them.

Experiments:
[1] = system: LHI-RC superassembly in Rhodobacter capsulatus membranes; conditions: for extraction of LHI-RC superassembly from R. capsulatus membranes: solubilized protein, optical spectroscopy; for Level (S/P solubilization rank and detergent strength): detergent at 10x CMC, 30 minutes at 32° C.
From the text: These complexes, normally embedded in the bacterial membrane, are highly pigmented and several outcomes from an assay are possible, including no degradation, partial degradation or complete degradation upon solubilization, or no solubilization. Thus, graded comparative evaluations could be obtained for a set of candidates such as the amphiphiles described herein.
In the engineered strain of R. capsulatus employed, the photosynthetic unit was comprised of a very labile LHI complex and a more resilient RC complex. An ideal amphiphile for this system will extract the intact LHI-RC superassembly from a bacterial membrane preparation and maintain the natural interactions among the components. Amphiphiles with a more disruptive effect will dissociate and denature LHI, leaving only intact RC, and even harsher amphiphiles will cause RC degradation. Each of these various outcomes can be assessed unambiguously via optical spectroscopy (FIG. 2 inset).
Measurements. The starting material for the screening protocols and stability measurements included specialized photosynthetic membranes from an engineered strain of Rhodobacter (R.) capsulatus, U43[pUHTM86Bgl]
To begin the solubilization and purification process, frozen aliquots of R. capsulatus membranes were thawed, homogenized, and equilibrated to 32° C. for 30 minutes. […] For subsequent experiments, the amphiphiles were evaluated at 10-fold CMC during the solubilization step.
The membrane samples were allowed to incubate with the amphiphile for 30 minutes at 32° C. The solubilized material was then separated from the membrane debris in an ultracentrifuge at 315,000×g at 4° C. for 30 minutes. […] After a UV-Vis-nearIR absorption spectrum was recorded, the resuspended pellet was discarded. […] The tubes were then incubated and inverted for 1 hour at 4° C.
Once binding was complete, samples were loaded onto resin-retaining spin columns (e.g., emptied His Spin Trap™ columns; GE Healthcare). The columns were then inserted into a 2 mL microcentrifuge tube to retain the filtered solution during centrifugation. […] Finally, protein was eluted into a fresh microcentrifuge tube with three 0.2 mL elution buffer aliquots (this buffer was identical to binding buffer with the addition of 1 M imidazole).
The R. capsulatus LHI-RC complexes extracted and purified by this procedure contain large numbers of cofactors that have absorptions at distinct wavelengths, and each component of the LHI-RC superassembly has a different inherent stability outside the lipid bilayer. The solubilization protocol outlined above therefore provides a multifaceted assessment of the efficacy of conventional detergents and novel amphiphiles. UV-Vis absorption spectroscopy data obtained at various stages of the protocol allow one to determine which protein components have degraded at these stages. […] The disruption potential was measured as the yield of superassembly extracted during solubilization (or, alternatively and more precisely, as the absence of superassembly in the pellet from the spin following solubilization).
The stabilizing propensity was determined from the spectra of the purified protein. An amphiphile was judged to be mild and stabilizing if it allowed the purification of fully intact LHI-RC superassembly (dominant absorption band at 875 nm). […] An amphiphile was judged to be of intermediate strength if it allowed for the purification of fully intact RC with damaged or missing LHI (dominant absorption at 800 nm with a shoulder at 875 nm; damaged LHI still bound to RC absorbs at 760 nm).
First, solubilization (illustrated in “STEP 1” of FIG. 12) denotes the ability of a surfactant to penetrate, integrate and disrupt a lipid bilayer.

[2] = Critical micelle concentration (CMC) by dye solubilization (Orange OT or DPH); type: physicochemical; conditions: for critical micelle concentration (CMC): aqueous solubilization of Orange OT; for CMC / CMC (%): determined by DPH (diphenylhexatriene) or Orange OT
From the text: Aqueous solubilization of Orange OT was used to determine critical micelle concentrations (CMC). […] Facile self-association of these amphiphiles under these conditions may be hindered by the hydrophilicity and/or steric bulk of the triglucoside and dimaltoside headgroups.
The Critical Micelle Concentrations (CMCs) of compounds of the invention can be determined by standard techniques known to those of skill in the art. For example, CMCs of the carbohydrate-based amphiphiles described herein can be determined by monitoring uptake of a dye (e.g., Orange OT or 1,6-diphenylhexatriene) with increasing detergent concentration, monitored by UV-visible or fluorescence spectroscopy.

[3] = cited from earlier work; for Buffer Range: pH range
[4] = Solubility in water / aqueous buffer; type: physicochemical; conditions: for solubility in water: without cosolvents/additives

Compound: CCCCCCCCCCCCC(=O)NC(CO[C@@H]1O[C@H](CO)[C@@H](O)[C@H](O)[C@H]1O)CO[C@@H]1O[C@H](CO)[C@@H](O)[C@H](O)[C@H]1O [C12-MPA2]
yield of membrane protein complexes purified by affinity chromatography ([1]; after extraction from R. capsulatus membranes): far greater yield
membrane protein complexes in the sample extracted ([1]; intracytoplasmic membranes of R. capsulatus): ~30%
extraction of LHI-RC superassembly from R. capsulatus membranes [1]: extracted a moderate amount of intact LHI-RC superassembly
critical micelle concentration (CMC) [2]: 2.4 mM
CMC [2]: 2.4 mM
CMC (%) [2]: 0.15%

Compound: CCCCCCCCCCCCCCCCC(=O)NC(CO[C@@H]1O[C@H](CO)[C@@H](O)[C@H](O)[C@H]1O)CO[C@@H]1O[C@H](CO)[C@@H](O)[C@H](O)[C@H]1O [C16-MPA2]
Level (S/P solubilization rank and detergent strength) [1]: insoluble

Compound: O=S(=O)(O)CCN1CCN(CCO)CC1 [HEPES, 4-2-hydroxyethyl-1-piperazineethanesulfonic acid]
Buffer Range [3]: 6.8-8.2

Compound: O=S(=O)(O)CCCN1CCOCC1 [MOPS, 3-(N-morpholino)propanesulfonic acid]
Buffer Range [3]: 6.5-7.9

Compound: CCCCCCCCCCCCC(=O)NCCO[C@@H]1O[C@H](CO)[C@@H](O)[C@H](O)[C@H]1O [MPA1]
Level (S/P solubilization rank and detergent strength) [1]: insoluble
solubility in aqueous buffer [4]: not soluble in aqueous buffer
solubility in water [4]: not soluble in water without other additives

Compound: CCCCCCCCCCCCC(=O)NC(CO[C@@H]1O[C@H](CO)[C@@H](O)[C@H](O)[C@H]1O)(CO[C@@H]1O[C@H](CO)[C@@H](O)[C@H](O)[C@H]1O)CO[C@@H]1O[C@H](CO)[C@@H](O)[C@H](O)[C@H]1O [MPA3]
extraction of LHI-RC superassembly from R. capsulatus membranes [1]: did not extract any protein
critical micelle concentration (CMC) [2]: 4.4 mM
CMC [2]: 4.4 mM
CMC (%) [2]: 0.35%

Compound: CCCCCCCCCCCCC(=O)NCCO[C@@H]1O[C@H](CO)[C@@H](O[C@H]2O[C@H](CO)[C@@H](O)[C@H](O)[C@H]2O)[C@H](O)[C@H]1O [MPA4]
Level (S/P solubilization rank and detergent strength) [1]: insoluble
solubility in aqueous buffer [4]: not soluble in aqueous buffer
solubility in water [4]: not soluble in water without other additives

Compound: CCCCCCCCCCCCC(=O)NC(CO[C@@H]1O[C@H](CO)[C@@H](O[C@H]2O[C@H](CO)[C@@H](O)[C@H](O)[C@H]2O)[C@H](O)[C@H]1O)CO[C@@H]1O[C@H](CO)[C@@H](O[C@H]2O[C@H](CO)[C@@H](O)[C@H](O)[C@H]2O)[C@H](O)[C@H]1O [MPA5]
extraction of LHI-RC superassembly from R. capsulatus membranes [1]: did not extract any protein
critical micelle concentration (CMC) [2]: 1.7 mM
CMC [2]: 1.7 mM
CMC (%) [2]: 0.16%

Compound: O=S(=O)(O)CCN1CCN(CCS(=O)(=O)O)CC1 [PIPES, piperazine-N,N′-bis(2-ethanesulfonic acid)]
pKa at 25° C. [3]: 6.76
Buffer Range [3]: 6.1-7.5

Compound: O=S(=O)(O)CCCNC(CO)(CO)CO [TAPS, 3-{[tris(hydroxymethyl)methyl]amino}propanesulfonic acid]
pKa at 25° C. [3]: 8.43
Buffer Range [3]: 7.7-9.1

Compound: O=S(=O)(O)CCNC(CO)(CO)CO [TES, 2-{[tris(hydroxymethyl)methyl]amino}ethanesulfonic acid]
Buffer Range [3]: 6.8-8.2

Compound: CCCCC(CCCC)(CC(=O)NCCOC1OC(CO)C(O)C(O)C1O)c1ccccc1 (stereo not drawn) [TPA1]
Level (S/P solubilization rank and detergent strength) [1]: insoluble
solubility in water [4]: not water-soluble without other cosolvents

Compound: CCCCC(CCCC)(CC(=O)NC(COC1OC(CO)C(O)C(O)C1O)(COC1OC(CO)C(O)C(O)C1O)COC1OC(CO)C(O)C(O)C1O)c1ccccc1 (stereo not drawn) [TPA3]
extraction of LHI-RC superassembly from R. capsulatus membranes [1]: no protein is extracted from the membrane

Compound: CCCCC(CCCC)(CC(=O)NCCO[C@@H]1O[C@H](CO)[C@@H](O[C@H]2O[C@H](CO)[C@@H](O)[C@H](O)[C@H]2O)[C@H](O)[C@H]1O)c1ccccc1 [TPA4]
extraction of LHI-RC superassembly from R. capsulatus membranes [1]: extracts a significant proportion of the membrane-embedded protein
critical micelle concentration (CMC) [2]: 4.0 mM
CMC [2]: 4 mM
CMC (%) [2]: 0.25%

Compound: CCCCC(CCCC)(CC(=O)NC(CO[C@@H]1O[C@H](CO)[C@@H](O[C@H]2O[C@H](CO)[C@@H](O)[C@H](O)[C@H]2O)[C@H](O)[C@H]1O)CO[C@@H]1O[C@H](CO)[C@@H](O[C@H]2O[C@H](CO)[C@@H](O)[C@H](O)[C@H]2O)[C@H](O)[C@H]1O)c1ccccc1 [TPA5]
extraction of LHI-RC superassembly from R. capsulatus membranes [1]: solubilized a small proportion of relatively intact LHI-RC superassembly

Compound: OCC1O[C@H](OCC23CC4CC(CC(C4)C2)C3)[C@H](O)C(O)[C@H]1O (stereo partly drawn) [TPA 42]
Level (S/P solubilization rank and detergent strength) [1]: insoluble

Compound: OC[C@H]1O[C@@H](OCCC23CC4CC(CC(C4)C2)C3)[C@H](O)[C@@H](O)[C@@H]1O [TPA 43]
Level (S/P solubilization rank and detergent strength) [1]: insoluble

CMC [2]: 19.2 mM
CMC (%) [2]: 1.19%
Compound: O=C(CC1(C2CCCCC2)CCCCC1)NC(CO[C@@H]1O[C@H](CO)[C@@H](O)[C@H](O)[C@H]1O)CO[C@@H]1O[C@H](CO)[C@@H](O)[C@H](O)[C@H]1O [TPA 50]

CMC [2]: 1.1 mM
CMC (%) [2]: 0.075%
Compound: CCCCCC[C@]1(CC(=O)NC(CO[C@H]2OC(CO)[C@H](O)C(O)[C@H]2O)CO[C@H]2OC(CO)[C@H](O)C(O)[C@H]2O)C2C[C@@H]3C[C@H](C2)C[C@@H]1C3 (stereo partly drawn) [TPA 52]

CMC [2]: 13.8 mM
CMC (%) [2]: 0.88%
Compound: O=C(CC1(C2CCCCC2)CCCCCC1)NC(CO[C@@H]1O[C@H](CO)[C@@H](O)[C@H](O)[C@H]1O)CO[C@@H]1O[C@H](CO)[C@@H](O)[C@H](O)[C@H]1O [TPA 53]

CMC [2]: 4.5 mM
CMC (%) [2]: 0.29%
Compound: O=C(CC1(C2CCCCC2)CCCCCCC1)NC(CO[C@@H]1O[C@H](CO)[C@@H](O)[C@H](O)[C@H]1O)CO[C@@H]1O[C@H](CO)[C@@H](O)[C@H](O)[C@H]1O [TPA 54]

CMC [2]: 2.25 mM
CMC (%) [2]: 0.15%
Compound: CCCCC(CCCC)(CC(=O)NC(COC1OC(CO)C(O)C(O)C1O)COC1OC(CO)C(O)C(O)C1O)C1CCCC1 (stereo not drawn) [TPA 57]

CMC [2]: 0.21 mM
CMC (%) [2]: 0.014%
Compound: CCCCCC(CC(=O)NC(CO[C@@H]1O[C@H](CO)[C@@H](O)[C@H](O)[C@H]1O)CO[C@@H]1O[C@H](CO)[C@@H](O)[C@H](O)[C@H]1O)(C1CCCCC1)C1CCCCC1 [TPA 73]

Compound: O=C(O)CNC(CO)(CO)CO [Tricine, N-tris(hydroxymethyl)methylglycine]
Buffer Range [3]: 7.4-8.8

Compound: NC(CO)(CO)CO [Tris, tris(hydroxymethyl)methylamine]
Buffer Range [3]: 7.5-9.0

CMC [2]: 1.1 mM
CMC (%) [2]: 0.04%
Compound: CC(C)(C)CC(C)(C)c1ccc(OCC(=O)NCCC[N+](C)(C)[O-])cc1 [Triton-N-oxide]
